Non-standard residues stand in square brackets, D forms with d. Residues, ends and D or L forms follow the SMILES beside them. dThz = O=C(O)[C@H]1CSCN1
Assays:
[1] = Index of Bioavailability (plasma TT AUC, oral vs i.v.); format: in vivo; conditions: rats, oral vs i.v. bolus
Text: Assays are done in duplicate and averaged.
Each sample population represents alternating sequential time points.

human thrombin = human thrombin (Homo sapiens, UniProt P00734); experiment: Thrombin amidase inhibition (Kass), chromogenic substrate; format: biochemical
In short: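 Kass, in liter per mole, was averaged over several compound concentrations, using free thrombin from a rate standard curve and free inhibitor as added minus bound. Hydrolysis of chromogenic substrate (0.25 mg/ml solution) was monitored at 405 nm with human thrombin (8 NIH units/ml solution) in Tris-NaCl buffer pH 7.4, compound in 50% aqueous methanol.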

[2] = biological target: T1, tissue plasminogen activator (t-PA) (Homo sapiens, UniProt P00750); experiment: Serine protease inhibition (Kass), t-PA; format: biochemical
T1 construct: purchased American Diagnostica, Greenwich, Conn

Human plasmin = biological target: T2, Human plasmin (Homo sapiens, UniProt P00747); experiment: Serine protease inhibition (Kass), plasmin; format: biochemical
T2 construct: Human plasmin is purchased from Boehringer Mannheim; purchased Boehringer Mannheim, Indianapolis, Ind
In short: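 Kass values come from the thrombin chromogenic procedure applied to fibrinolytic proteases. t-PA (nt-PA single chain, or mt-PA6) paired with substrate H-D-Ile-Pro-Arg-p-nitroanilide; human plasmin paired with H-D-Val-Leu-Lys-p-nitroanilide.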

human plasma [3] = experiment: Human plasma anticoagulation, prothrombin time (PT); format: biochemical
In short: (§1)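 Compounds added across a wide concentration range to human plasma; APTT, PT and TT clotting times measured on a coagulation instrument, bovine thrombin used for plasma assays. Concentration doubling clotting time estimated by linear extrapolation.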

human plasma [4] = experiment: Human plasma anticoagulation, thrombin time (TT); format: biochemical
In short: as §1

Bovine trypsin = biological target: T3, Bovine trypsin (Bos taurus, UniProt P00760); experiment: Serine protease inhibition (Kass), trypsin; format: biochemical
T3 construct: Bovine trypsin is purchased from Worthington Biochemicals; purchased Worthington Biochemicals, Freehold, N.J
T3 sequence (P00760 24-246): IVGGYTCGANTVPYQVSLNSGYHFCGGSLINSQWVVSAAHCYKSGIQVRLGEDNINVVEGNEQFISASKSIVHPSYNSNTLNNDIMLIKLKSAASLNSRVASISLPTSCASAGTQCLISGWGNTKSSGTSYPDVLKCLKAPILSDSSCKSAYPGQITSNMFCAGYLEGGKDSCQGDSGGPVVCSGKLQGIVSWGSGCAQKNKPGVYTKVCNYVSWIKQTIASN
In short: (§2)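 Chromogenic p-nitroanilide substrate assays run as for human thrombin; trypsin with N-Benzoyl-Phe-Val-Arg-p-nitroanilide, human factor Xa with N-Benzoyl-Ile-Glu-Gly-Arg-p-nitroanilide. Values are association constants (Kass).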

factor Xa = biological target: T4, factor Xa (Homo sapiens, UniProt P00742); experiment: Serine protease inhibition (Kass), factor Xa; format: biochemical
T4 construct: Human factors X, Xa, IXa, XIa, and XIIa are purchased from Enzyme Research Laboratories; purchased Enzyme Research Laboratories, South Bend, Ind
In short: as §2

human plasma [5] = experiment: Human plasma anticoagulation, activated partial thromboplastin time (APTT); format: biochemical
In short: as §1

T2 sequence (P00747 581-810 limits assumed): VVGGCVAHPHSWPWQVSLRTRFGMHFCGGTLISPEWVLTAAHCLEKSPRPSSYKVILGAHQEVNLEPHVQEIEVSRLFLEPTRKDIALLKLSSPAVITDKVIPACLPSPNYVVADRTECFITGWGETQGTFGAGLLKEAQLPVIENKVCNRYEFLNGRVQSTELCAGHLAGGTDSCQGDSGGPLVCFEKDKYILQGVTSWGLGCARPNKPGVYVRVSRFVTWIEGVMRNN
T2 sequence (P00747 97-580 partner limits assumed): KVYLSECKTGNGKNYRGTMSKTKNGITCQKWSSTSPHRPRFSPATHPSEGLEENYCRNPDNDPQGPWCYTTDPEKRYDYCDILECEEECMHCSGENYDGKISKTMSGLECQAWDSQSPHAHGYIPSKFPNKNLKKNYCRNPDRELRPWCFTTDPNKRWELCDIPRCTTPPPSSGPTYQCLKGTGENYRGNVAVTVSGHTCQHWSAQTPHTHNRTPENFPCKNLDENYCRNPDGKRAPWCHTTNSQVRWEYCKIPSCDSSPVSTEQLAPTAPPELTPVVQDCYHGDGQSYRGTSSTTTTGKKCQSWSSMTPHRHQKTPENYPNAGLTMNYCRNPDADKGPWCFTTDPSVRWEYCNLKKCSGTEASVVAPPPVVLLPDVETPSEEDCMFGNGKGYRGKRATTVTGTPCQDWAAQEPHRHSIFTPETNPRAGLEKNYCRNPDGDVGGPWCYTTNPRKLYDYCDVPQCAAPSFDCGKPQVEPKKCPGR
T4 sequence (P00742 235-488 limits assumed): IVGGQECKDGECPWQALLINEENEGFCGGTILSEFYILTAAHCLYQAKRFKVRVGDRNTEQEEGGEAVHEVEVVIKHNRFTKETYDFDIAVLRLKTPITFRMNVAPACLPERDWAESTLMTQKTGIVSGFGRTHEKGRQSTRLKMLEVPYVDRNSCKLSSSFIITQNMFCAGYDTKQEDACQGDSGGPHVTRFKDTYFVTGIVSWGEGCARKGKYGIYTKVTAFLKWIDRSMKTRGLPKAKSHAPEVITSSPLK
T4 sequence (P00742 41-179 partner limits assumed): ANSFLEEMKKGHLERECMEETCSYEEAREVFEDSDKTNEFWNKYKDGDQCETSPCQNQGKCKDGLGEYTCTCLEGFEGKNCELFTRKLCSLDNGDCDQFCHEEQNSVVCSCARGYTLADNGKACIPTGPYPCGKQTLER
T1 sequence (P00750 36-562): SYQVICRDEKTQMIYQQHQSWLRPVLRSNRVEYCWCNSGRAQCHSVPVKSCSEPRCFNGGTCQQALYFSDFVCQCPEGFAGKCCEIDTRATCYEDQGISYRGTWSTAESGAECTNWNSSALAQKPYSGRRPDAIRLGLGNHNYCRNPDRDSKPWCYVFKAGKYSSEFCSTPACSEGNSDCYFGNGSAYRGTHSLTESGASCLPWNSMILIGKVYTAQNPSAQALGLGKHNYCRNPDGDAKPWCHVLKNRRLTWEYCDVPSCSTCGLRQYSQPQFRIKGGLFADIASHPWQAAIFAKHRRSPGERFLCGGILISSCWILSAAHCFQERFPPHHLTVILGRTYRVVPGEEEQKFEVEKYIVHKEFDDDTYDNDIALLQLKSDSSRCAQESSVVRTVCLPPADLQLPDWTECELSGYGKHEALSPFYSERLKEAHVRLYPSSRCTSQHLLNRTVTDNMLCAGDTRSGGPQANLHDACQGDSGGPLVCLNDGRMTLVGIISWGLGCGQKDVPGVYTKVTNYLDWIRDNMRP

Which “Percent Relative Activity (Index of Bioavailability)” value [1] does the source give for `Cl.Cl.Cl.N=C(N)NCCC[C@@H](C=O)NC(=O)[C@@H]1CCCN1C(=O)[C@H]1C[C@@H](Oc2ccccc2)CN1.O` (relative stereo) [Example 12, D-Cis-(4-phenoxy)Prolinyl-L-Prolinyl-L-Arginine Aldehyde Trihydrochloride Monohydrate] here?
The value was 16%.

And the “Kass Human Thrombin” value (human thrombin)?
The value was 25 L/mol × 10^6.

With `Cl.Cl.N=C(N)NCCC[C@@H](C=O)NC(=O)[C@@H]1CCCN1C(=O)[C@H]1CSCN1` [Example 4, D-Thiazolidinyl-4-Carbonyl-L-Prolinyl-L-Arginine Aldehyde Dihydrochloride] (H-[dThz]-Pro-Arg-aldehyde) as the compound, how does the “Percent Relative Activity (Index of Bioavailability)” value [1] read?
Its value is 16%.

What about the “Kass Human Thrombin” value (human thrombin) of the same compound?
Its value is 5 L/mol × 10^6.

For `CCOC(=O)N[C@H](Cc1ccccc1)C(=O)N1CCC[C@@]1(C)C(=O)N[C@H](C=O)CCCNC(=N)N.Cl` [Example 27, N-ethoxycarbonyl-D-Phenylalanyl(α-methyl)-L-prolinyl-L-arginine aldehyde hydrochloride], which “Kass t-PA” value [2] is on record?
The value was 0.00079 L/mol × 10^6.

And the “Kass Plasmin” value (Human plasmin)?
Its value is 0.059 L/mol × 10^6.

And the “2 × Clotting time PT” value (human plasma [3])?
The value was 2,200 ng/mL.

What about the “2 × Clotting time TT” value (human plasma [4]) of the same compound?
Its value is 48 ng/mL.

What about the “Kass Trypsin” value (Bovine trypsin) of the same compound?
The value was 2.4 L/mol × 10^6.

What about the “Kass Human Thrombin” value (human thrombin) of the same compound?
The value was 75 L/mol × 10^6.

What about the “Kass Xa” value (factor Xa) of the same compound?
Its value is 0.044 L/mol × 10^6.

What about the “2 × Clotting time APTT” value (human plasma [5]) of the same compound?
The value was 2,500 ng/mL.

Which results are given for `Cl.N=C(N)NCCC[C@@H](C=O)NC(=O)[C@@H]1CCCN1C(=O)[C@@H](Cc1ccccc1)NC(=O)C(F)(F)F` [Example 69, N-(trifluoroacetyl)-D-phenylalanyl-L-Prolinyl-L-Arginine Aldehyde Hydrochloride]?
Kass t-PA [2]: 0.17 L/mol × 10^6; Kass Plasmin (Human plasmin): 0.31 L/mol × 10^6; 2 × Clotting time PT (human plasma [3]): 1,800 ng/mL; 2 × Clotting time TT (human plasma [4]): 59 ng/mL; Kass Trypsin (Bovine trypsin): 15 L/mol × 10^6; Kass Human Thrombin (human thrombin): 26 L/mol × 10^6; Kass Xa (factor Xa): 0.033 L/mol × 10^6; 2 × Clotting time APTT (human plasma [5]): 1,300 ng/mL

For `CCCCC(Cc1ccccc1)(NC(=O)OCC)C(=O)N1CCC[C@H]1C(=O)N[C@H](C=O)CCCNC(=N)N` (stereo partly drawn) [Example 40, N-ethoxycarbonylphenylalanyl(αn-butyl)-L-prolinyl-L-arginine aldehyde], which “Kass t-PA” value [2] is on record?
The value was 0.001 L/mol × 10^6.

What about the “Kass Plasmin” value (Human plasmin) of the same compound?
Its value is 0.13 L/mol × 10^6.

What about the “2 × Clotting time PT” value (human plasma [3]) of the same compound?
Its value is 2,400 ng/mL.

What about the “2 × Clotting time TT” value (human plasma [4]) of the same compound?
The value was 91 ng/mL.

What about the “Kass Trypsin” value (Bovine trypsin) of the same compound?
The value was 15 L/mol × 10^6.

And the “Kass Human Thrombin” value (human thrombin)?
Its value is 47 L/mol × 10^6.

What about the “Kass Xa” value (factor Xa) of the same compound?
Its value is 0.088 L/mol × 10^6.

What about the “2 × Clotting time APTT” value (human plasma [5]) of the same compound?
The value was 3,100 ng/mL.

Which results are given for `CCS(=O)(=O)N[C@H](Cc1ccccc1)C(=O)N1CCC[C@@]1(C)C(=O)N[C@H](C=O)CCCNC(=N)N.Cl` [Example 28, N-ethylsulfonyl-D-Phenylalanyl(α-methyl)-L-prolinyl-L-arginine aldehyde hydrochloride]?
Kass t-PA [2]: 0.051 L/mol × 10^6; Kass Plasmin (Human plasmin): 0.31 L/mol × 10^6; 2 × Clotting time PT (human plasma [3]): 2,400 ng/mL; 2 × Clotting time TT (human plasma [4]): 100 ng/mL; Kass Trypsin (Bovine trypsin): 20 L/mol × 10^6; Kass Human Thrombin (human thrombin): 24 L/mol × 10^6; Kass Xa (factor Xa): 0.11 L/mol × 10^6; 2 × Clotting time APTT (human plasma [5]): 1,600 ng/mL

What does the source list for `Cl.Cl.N=C(N)NCCC[C@@H](C=O)NC(=O)[C@@H]1CCCN1C(=O)[C@@]1(Cc2ccccc2)CCCN1.O.O` [Example 24, D-Prolinyl (αbenzyl)-L-Prolinyl-L-arginine aldehyde, dihydrochloride dihydrate]?
Kass t-PA [2]: 0.0034 L/mol × 10^6; Kass Plasmin (Human plasmin): 0.31 L/mol × 10^6; 2 × Clotting time PT (human plasma [3]): 3,600 ng/mL; 2 × Clotting time TT (human plasma [4]): 160 ng/mL; Kass Trypsin (Bovine trypsin): 14 L/mol × 10^6; Kass Human Thrombin (human thrombin): 12 L/mol × 10^6; Kass Xa (factor Xa): 0.13 L/mol × 10^6; 2 × Clotting time APTT (human plasma [5]): 2,100 ng/mL

For `Cl.N=C(N)NCCC[C@@H](C=O)NC(=O)[C@@H]1CCCN1C(=O)[C@@H](Cc1ccccc1)NC(=O)Cc1cccnc1` [Example 48, N-(3-pyridylacetyl)-D-phenylalanyl-L-Prolinyl-L-Arginine Aldehyde Hydrochloride], which “Kass t-PA” value [2] is on record?
Its value is 0.22 L/mol × 10^6.

And the “Kass Plasmin” value (Human plasmin)?
Its value is 0.27 L/mol × 10^6.

And the “2 × Clotting time PT” value (human plasma [3])?
The value was 3,400 ng/mL.

And the “2 × Clotting time TT” value (human plasma [4])?
The value was 150 ng/mL.

And the “Kass Trypsin” value (Bovine trypsin)?
The value was 5.2 L/mol × 10^6.

And the “Kass Human Thrombin” value (human thrombin)?
Its value is 13 L/mol × 10^6.

What about the “Kass Xa” value (factor Xa) of the same compound?
The value was 0.067 L/mol × 10^6.

What about the “2 × Clotting time APTT” value (human plasma [5]) of the same compound?
The value was 2,300 ng/mL.

With `CCNC(=O)N[C@H](Cc1ccccc1)C(=O)N1CCC[C@H]1C(=O)N[C@H](C=O)CCCNC(=N)N.Cl` [Example 76, N-(ethylaminocarbonyl)-D-phenylalanyl-L-Prolinyl-L-Arginine Aldehyde Hydrochloride] as the compound, how does the “Kass t-PA” value [2] read?
The value was 0.54 L/mol × 10^6.

And the “Kass Plasmin” value (Human plasmin)?
Its value is 2.0 L/mol × 10^6.

What about the “2 × Clotting time PT” value (human plasma [3]) of the same compound?
The value was 1,700 ng/mL.

What about the “2 × Clotting time TT” value (human plasma [4]) of the same compound?
Its value is 63 ng/mL.

What about the “Kass Trypsin” value (Bovine trypsin) of the same compound?
The value was 60 L/mol × 10^6.

And the “Kass Human Thrombin” value (human thrombin)?
Its value is 25 L/mol × 10^6.

What about the “Kass Xa” value (factor Xa) of the same compound?
The value was 0.21 L/mol × 10^6.

And the “2 × Clotting time APTT” value (human plasma [5])?
The value was 1,100 ng/mL.

Which “Kass t-PA” value [2] does the source give for `Cl.N=C(N)NCCC[C@@H](C=O)NC(=O)[C@@H]1CCCN1C(=O)[C@@H](Cc1ccccc1)NS(=O)(=O)c1nccs1` [Example 63, N-(2-thiazolylsulfonyl)-D-phenylalanyl-L-Prolinyl-L-Arginine Aldehyde Hydrochloride] here?
Its value is 0.31 L/mol × 10^6.

What about the “Kass Plasmin” value (Human plasmin) of the same compound?
The value was 3.4 L/mol × 10^6.

What about the “2 × Clotting time PT” value (human plasma [3]) of the same compound?
Its value is 2,900 ng/mL.

What about the “2 × Clotting time TT” value (human plasma [4]) of the same compound?
The value was 66 ng/mL.

What about the “Kass Trypsin” value (Bovine trypsin) of the same compound?
The value was 52 L/mol × 10^6.

What about the “Kass Human Thrombin” value (human thrombin) of the same compound?
The value was 68 L/mol × 10^6.

And the “Kass Xa” value (factor Xa)?
Its value is 2.8 L/mol × 10^6.

And the “2 × Clotting time APTT” value (human plasma [5])?
The value was 810 ng/mL.

For `CCCC(Cc1ccccc1)(NC(=O)OCC)C(=O)N1CCC[C@H]1C(=O)N[C@H](C=O)CCCNC(=N)N.Cl` (stereo partly drawn) [Example 38, N-ethoxycarbonylphenylalanyl(αn-propyl)-L-prolinyl-L-arginine aldehyde hydrochloride], which “Kass t-PA” value [2] is on record?
Its value is under 0.001 L/mol × 10^6.

What about the “Kass Plasmin” value (Human plasmin) of the same compound?
The value was 0.074 L/mol × 10^6.

And the “2 × Clotting time PT” value (human plasma [3])?
Its value is 2,200 ng/mL.

And the “2 × Clotting time TT” value (human plasma [4])?
Its value is 98 ng/mL.

What about the “Kass Trypsin” value (Bovine trypsin) of the same compound?
Its value is 7.3 L/mol × 10^6.

And the “Kass Human Thrombin” value (human thrombin)?
The value was 38 L/mol × 10^6.

What about the “Kass Xa” value (factor Xa) of the same compound?
The value was 0.077 L/mol × 10^6.

What about the “2 × Clotting time APTT” value (human plasma [5]) of the same compound?
Its value is 2,700 ng/mL.

Which “Kass t-PA” value [2] does the source give for `CC(=O)N[C@H](Cc1ccccc1)C(=O)N1CCC[C@H]1C(=O)N[C@H](C=O)CCCNC(=N)N.Cl` [Example 67, N-(acetyl)-D-phenylalanyl-L-Prolinyl-L-Arginine Aldehyde Hydrochloride] here?
Its value is 0.11 L/mol × 10^6.

And the “Kass Plasmin” value (Human plasmin)?
Its value is 0.28 L/mol × 10^6.

What about the “2 × Clotting time PT” value (human plasma [3]) of the same compound?
The value was 4,100 ng/mL.

What about the “2 × Clotting time TT” value (human plasma [4]) of the same compound?
Its value is 140 ng/mL.

What about the “Kass Trypsin” value (Bovine trypsin) of the same compound?
Its value is 14 L/mol × 10^6.

What about the “Kass Human Thrombin” value (human thrombin) of the same compound?
The value was 3.4 L/mol × 10^6.

What about the “Kass Xa” value (factor Xa) of the same compound?
Its value is 0.066 L/mol × 10^6.

And the “2 × Clotting time APTT” value (human plasma [5])?
Its value is 2,700 ng/mL.

Which results are given for `CCCN(CCC)S(=O)(=O)c1ccc(C(=O)N[C@H](Cc2ccccc2)C(=O)N2CCC[C@H]2C(=O)N[C@H](C=O)CCCNC(=N)N)cc1.Cl` [Example 73, N-(4-di-n-propylaminosulfonylbenzoyl)-D-phenylalanyl-L-Prolinyl-L-Arginine Aldehyde Hydrochloride]?
Kass t-PA [2]: 0.62 L/mol × 10^6; Kass Plasmin (Human plasmin): 0.86 L/mol × 10^6; 2 × Clotting time PT (human plasma [3]): 4,800 ng/mL; 2 × Clotting time TT (human plasma [4]): 150 ng/mL; Kass Trypsin (Bovine trypsin): 15 L/mol × 10^6; Kass Human Thrombin (human thrombin): 43 L/mol × 10^6; Kass Xa (factor Xa): 0.32 L/mol × 10^6; 2 × Clotting time APTT (human plasma [5]): 3,500 ng/mL

From US5436229A, “Bisulfite adducts of arginine aldehydes” (Eli Lilly and Company, priority 1994, dated 1995)
